Key:
[1] = test system: male apo-lipoprotein E deficient mouse; test: Experiment 1: plaque regression, % lesion area of aorta (oil red O) in apoE deficient mouse; format: in vivo; settings: arteriosclerotic diet 8 weeks, then 27 mg/kg/day mixed with normal diet, 9th to 12th week, control 31%, p<0.01
Excerpt: [Method] […] Subsequently, each of only CE-2 powder, which is a normal diet, (control group, number of animals=8) and CE-2 powder supplemented with Compound A (number of animals=8) was given ad libitum during the period from the 9th week to the 12th week. Each animal was sacrificed by decapitation 12 weeks after initiation of the experiment, the vessel from the aortic arch to the femoral bifurcation was isolated and opened in the direction of the vascular axis, stained with oil red O (Sigma Aldrich Japan), photographed closely using a medical Nikkor (NIKON), and the photograph was scanned using a scanner (GT-6000, EPSON) and the image was processed using Adobe Photoshop. Thus, the image of the vessel was trimmed and the red color was extracted and modified into a two-tone gradation.
The two-tone image was subjected to an NIH image (National Institute of Health) to count pixels, whereby calculating the % lesion area based on the entire surface area of the internal wall of the vessel.

[2] = test system: male apo-lipoprotein E deficient mouse; test: Experiment 2: plaque regression, % lesion area and aortic cholesteryl ester content in apoE KO mouse; format: in vivo; settings: arteriosclerotic diet 8 weeks, then normal diet with 30 mg/kg/day oral for 4 weeks
Protocol: (§1) [Results] The lesion (plaque) area based on the vascular internal surface area was 31% in the group fed only the normal diet after 9th week. […] Experiment 2 [Method] […] Subsequently, from the 9th week to the 12th week, Compound B (0.5% methyl cellulose suspension: at 30 mg/kg/day) was administered orally, during the period only CE-2 powder, which is a normal diet, was given. The control group was maintained with only CE-2 diet. Each animal was sacrificed by decapitation 12 weeks after initiation of the experiment, the vessel from the aortic arch to the femoral bifurcation was isolated and opened in the direction of the vascular axis, stained with oil red O (Sigma Aldrich Japan), and subjected to an image analysis similarly to Experiment 1 to calculate the % lesion area based on the entire vascular internal wall area. The vessel specimen after the image analysis was homogenized in saline, and the amount of cholesteryl ester content in the aorta was measured in accordance with the method by Hara and Radin (Lipid Extract of tissues with a low-Toxicity solvent, Anal. Biochem., 90:420-426, 1978), that is, from the aorta stained with the oil red O was extracted the lipid by a glass homogenizer with hexane:isopropyl alcohol (3:2) and centrifuged. Subsequently, the supernatant was recovered and evaporated to dryness, and then dissolved in TESIT: dioxane (1:1). From this solution, its total cholesterol content (Cholesterol C test, WAKO) and the free cholesterol content (Free Cholesterol C test, WAKO) were examined. The data obtained were corrected for the wet weight of the aorta. The cholesteryl ester content (CE) was obtained by subtracting the free cholesterol content from the total cholesterol content. Since the sample, which was extracted with hexane:isopropyl alcohol and then evaporated to dryness, contained the oil red O which interferes with the absorption wavelength for the cholesterol measurement, the cholesterol content was calculated for each sample by subtracting the blank level (absorbance of oil red O in sample). [Results]

[3] = test system: male apo-lipoprotein E deficient mouse; test: Experiment 3: plaque regression, % lesion area and aortic cholesteryl ester content in apoE KO mouse; format: in vivo; settings: arteriosclerotic diet 8 weeks
Protocol: as §1
[Method] […] The control group was maintained with only CE-2 diet. Each animal was sacrificed by decapitation 12 weeks after initiation of the experiment, the vessel from the aortic arch to the femoral bifurcation was isolated and opened in the direction of the vascular axis, stained with oil red O (Sigma Aldrich Japan), and subjected to an image analysis similarly to Experiment 1 to calculate the % lesion area based on the entire vascular internal wall area. The vessel specimen after the image analysis was homogenized in saline, and the amount of cholesteryl ester content in the aorta was measured by an enzymatic method similarly to Experiment 2 described above. [Results]

COc1cccc(OC)c1NC(=O)Cc1c(-c2ccccc2C)c2cc(Cl)ccc2oc1=O [Compound A, 2-[6-chloro-2-oxo-4-(2-methylphenyl)-2H-chromen-3-yl]-N-(2,6-dimethoxyphenyl)acetamide]
lesion (plaque) area based on the vascular internal surface area [1]: 15%

COc1cccc(OC)c1NC(=O)Nc1oc2cc3c(cc2c1-c1ccccc1C)CCC3 [Compound B, N-(2,6-dimethoxyphenyl)-N′-[3-(2-methylphenyl)-6,7-dihydro-5H-indeno[5,6-b]furan-2-yl]urea]
aortic cholesteryl ester content ([2]; apoE KO mice, control 9.42): 4.76 µg/mg
% lesion area ([2]; apoE KO mice, control 22.6%): 16.9%
% lesion area ([2]; apoE KO mouse, n = 4): 16.9 ± 1.6%
aortic cholesteryl ester content ([2]; apoE KO mouse, n = 4, P < 0.05% (Dunnett's test)): 4.76 ± 0.46 µg/mg

O=C(Cc1c(-c2ccccc2)c2cc3c(cc2oc1=O)CCC3)Nc1ccc(Cl)cc1C(F)(F)F [Compound C, N-(4-chloro-2-trifluoromethylphenyl)-2-(2-oxo-4-phenyl-2,6,7,8-tetrahydrocyclopenta[g]chromen-3-yl)acetamide]
aortic cholesteryl ester content ([3]; apoE KO mice, then normal diet oral for 4 weeks (method: 10 mg/kg/day), control 6.83): 5.3 µg/mg
% lesion area ([3]; apoE KO mice, then normal diet oral for 4 weeks (method: 10 mg/kg/day), control 31.2%): 23.3%
melting point: 198 to 200 °C

CCOC(=O)C=Cc1cccc(-c2c(CC(=O)Nc3ccc(Cl)cc3C(F)(F)F)c(=O)oc3cc(Cl)c(C)cc23)c1 [Example 336]
melting point: 118 °C (dec.)

CCOC(=O)C=Cc1cccc(-c2c(CC(=O)Nc3ccc(F)cc3C(F)(F)F)c(=O)oc3cc(Cl)c(C)cc23)c1 [Example 337]
melting point: 193 to 196 °C

N-(2,6-dimethoxyphenyl)-N′-[3-(2-methylphenyl)-6,7-dihydro-5H-indeno[5,6-b]furan-2-yl]urea [Compound B]
aortic cholesteryl ester content ([3]; apoE KO mouse, then normal diet with 10 mg/kg/day oral (b869 says) for 4 weeks, n = 10): 5.30 ± 0.37 µg/mg
% lesion area ([3]; apoE KO mouse, then normal diet with 10 mg/kg/day oral (b869 says) for 4 weeks, n = 10, P < 0.05% (Dunnett's test)): 23.3 ± 1.8 %
